Results published in patent US4259235A, “Tricyclic nitrogenous compounds having string plant growth regulating properties” (BASF Aktiengesellschaft, priority 1977, dated 1981).
Read-outs that look alike come from different tables or passages of the source.

Tests used:
Ipom. spp. = assay: Herbicidal action, pre- and postemergence application in the greenhouse; type: in vivo, Ipomoea spp.; conditions: Ipomoea, post-emergence; 3.0 kg/ha POST; read-out: % damage
Experimental: (§1) Plastic flowerpots having a volume of 300 cm^3 were filled with a sandy loam and the test plants placed therein (either as seed, as vegetatively reproduced species, or as potted plants, e.g., vines). For preemergence treatment, the active ingredients were suspended or emulsified in water as vehicle and sprayed onto the surface of the soil immediately after sowing by means of finely distributing nozzles. The potted vines were treated by spraying them with the correspondingly diluted liquor. For postemergence treatment, the agents were, as stated above, sprayed in water onto the leaves of the test plants, some liquor also falling onto the soil. In some special cases, solid active ingredients were first dissolved in dimethylformamide and then applied in a total liquor amount of 400 liters of water per hectare. For the postemergence treatment, the plants were first grown to a height of from 3 to 10 cm before being treated. With grasses, the first growth was cut, and the new growth treated 2 to 3 days after cutting. The temperature requirements of the plants were taken into account by placing them in cooler or warmer sections of the greenhouse. The experiments were run for from 4 to 6 weeks, during which time the plants were tended and their reaction to the various treatments was assessed.
(§2) The application rates are given in kg/ha of active ingredient, regardless of the method of application and the amount of water used.
(§3) A 0 to 100 scale was used for the evaluation, 0 denoting normal emergence or no damage (or no inhibition), and 100 denoting non-emergence or complete destruction of the plants. A distinction should be made in the influence on growth between desired changes without any appreciable disadvantageous phytotoxic effects (e.g., purely growth-regulating effects) and those of a phytotoxic herbicical character.

Galium apar. = assay: as above; type: in vivo, Galium aparine; conditions: post-emergence, 3.0 kg/ha POST, read-out: % damage
Experimental: as §1, §2, §3

Lolium mult. = assay: as above; type: in vivo; conditions: Lolium, post-emergence, read-out: % damage
Experimental: as §1, §2, §3

Mentha piper. = assay: as above; type: in vivo; conditions: post-emergence; 3.0 kg/ha POST; read-out: % damage
Experimental: as §1, §2, §3

Poa pratensis = assay: Growth inhibition in lawns, preemergence treatment in the greenhouse; type: in vivo
Experimental: as §1, §2, §3

potted vines = assay: Tolerance by potted vines in greenhouse; spray application; type: in vivo; conditions: for Potted vines - leaf damage: 4.0 and 8.0 kg/ha
Experimental: as §1, §2, §3

Sinapis alba = assay: Herbicidal action, pre- and postemergence application in the greenhouse; type: in vivo; conditions: post-emergence, 3.0 kg/ha PRE, read-out: % damage
Experimental: as §1, §2, §3

spring barley [1] = assay: Growth height of spring barley, soil treatment, Example 11; type: in vivo, spring barley ("Union" variety)
Experimental: (§4) The test plants--spring wheat ("Opal" variety), spring barley ("Union" variety) and spring rye ("Petkuser" variety)--were grown under greenhouse conditions in plastic dishes 11.5 cm in diameter, in a peat substrate provided with sufficient nutrients.
(§5) The soil (preemergence) treatment was effected after sowing by pouring aqueous formulations of the active ingredients, at four application rates, onto the surface of the substrate.
(§6) The shortening effect caused by the compounds was shown by measurements of the height of the plants at the end of the experiment.
(§7) The prior art compound N,N,N-trimethyl-N-β-chloroethylammonium chloride (CCC, German Printed Application DAS No. 1,294,734) was used for comparison purposes.

spring rye [2] = assay: Growth height of spring rye, soil treatment, Example 11; type: in vivo, spring rye ("Petkuser" variety)
Experimental: as §4, §5, §6, §7

spring rye [3] = assay: Growth height of spring rye, leaf treatment, Example 11; type: in vivo, spring rye ("Petkuser" variety)
Experimental: as §4
(§8) Leaf treatment was effected by spraying the plants at a growth height of 11 cm with aqueous formulations of the active ingredients, at three application rates.
as §6, §7

spring barley [4] = assay: Growth height of spring barley, leaf treatment, Example 11; type: in vivo, spring barley ("Union" variety)
Experimental: as §4, §8, §6, §7

spring wheat [5] = assay: Growth height of spring wheat, soil (preemergence) treatment, Example 9; type: in vivo, spring wheat ("Opal" variety); conditions: 30 days
Experimental: (§9) Spring wheat of the "Opal" variety and spring barley of the "Union" variety were grown in the winter half of the year under greenhouse conditions in plastic dishes 11.5 cm in diameter, in a peat substrate provided with sufficient nutrients.
(§10) The reductions in growth height caused by the treatment were determined by measuring the height of the plants at the end of the experiment after 30 days' growth, and comparing it with that of untreated plants.

spring barley [6] = assay: Growth height of spring barley, soil (preemergence) treatment, Example 9; type: in vivo, spring barley ("Union" variety); conditions: 30 days
Experimental: as §9, §10

spring wheat [7] = assay: Growth height of spring wheat, leaf treatment, Example 11; type: in vivo, spring wheat ("Opal" variety)
Experimental: as §4, §8, §6, §7

O=C1NC2C3CC(C(Br)C3Br)C12 (stereo not shown)
pest or weed control at 3000 g/ha (Ipom. spp.): 95% | pest or weed control at 3000 g/ha (Galium apar.): 70% | pest or weed control at 3000 g/ha (Lolium mult.; 3.0 kg/ha POST): 95% | pest or weed control at 3000 g/ha (Mentha piper.): 40%

[O-][N+]1=NC2C3CC(C4C3N4c3ccc(Br)cc3)C21 (stereo not shown)
Growth after emergence, remark (Poa pratensis; 0.5 to 4.0 kg/ha): very short growth overall; grass compact | inhibition at 500 g/ha (Poa pratensis; Poa pratensis, pre-emergence, 0.5 kg/ha, read-out: % growth inhibition after emergence): 50% | inhibition at 1000 g/ha (Poa pratensis; Poa pratensis, pre-emergence, 1.0 kg/ha, read-out: % growth inhibition after emergence): 60% | inhibition at 2000 g/ha (Poa pratensis; Poa pratensis, pre-emergence, 2.0 kg/ha, read-out: % growth inhibition after emergence): 60% | inhibition at 4000 g/ha (Poa pratensis; Poa pratensis, pre-emergence, 4.0 kg/ha, read-out: % growth inhibition after emergence): 70%

N#Cc1c(Cl)cccc1Cl
Potted vines - leaf damage (potted vines): slight chlorosis | Change in shoot growth (potted vines; 4.0 kg/ha): 15.3 cm | Change in shoot growth (potted vines; 8.0 kg/ha): 15.7 cm

C1C2C3N=NC3C1C1OC21 (stereo not shown) [drawing 445]
pest or weed control at 3000 g/ha (Ipom. spp.): 100% | pest or weed control at 3000 g/ha (Galium apar.): 60% | pest or weed control at 3000 g/ha (Lolium mult.; 3.0 kg/ha POST): 100% | pest or weed control at 3000 g/ha (Lolium mult.; 3.0 kg/ha PRE): 95% | pest or weed control at 3000 g/ha (Mentha piper.): 100% | pest or weed control at 3000 g/ha (Sinapis alba): 90%

CCNc1nc(Cl)nc(NCC)n1
Potted vines - leaf damage (potted vines): chlorotic yellow- ing, necroses | Change in shoot growth (potted vines; 4.0 kg/ha): 17.3 cm | Change in shoot growth (potted vines; 8.0 kg/ha): 10.3 cm

Cc1ccc(NC2C(Cl)C3CC2C2N=NC32)cc1 (stereo not shown)
pest or weed control at 3000 g/ha (Ipom. spp.): 100% | pest or weed control at 3000 g/ha (Galium apar.): 75% | pest or weed control at 3000 g/ha (Lolium mult.; 3.0 kg/ha POST): 100% | pest or weed control at 3000 g/ha (Lolium mult.; 3.0 kg/ha PRE): 80% | pest or weed control at 3000 g/ha (Mentha piper.): 100% | pest or weed control at 3000 g/ha (Sinapis alba): 100%

FC(F)(F)c1cccc(NC2C(Br)C3CC2C2N=NC32)c1 (stereo not shown)
pest or weed control at 3000 g/ha (Ipom. spp.): 100% | pest or weed control at 3000 g/ha (Galium apar.): 90% | pest or weed control at 3000 g/ha (Lolium mult.; 3.0 kg/ha POST): 100% | pest or weed control at 3000 g/ha (Lolium mult.; 3.0 kg/ha PRE): 100% | pest or weed control at 3000 g/ha (Mentha piper.): 95% | pest or weed control at 3000 g/ha (Sinapis alba): 95%

ClC1C2CC(C3N=NC23)C1Nc1nccs1 (stereo not shown)
pest or weed control at 3000 g/ha (Ipom. spp.): 80% | pest or weed control at 3000 g/ha (Galium apar.): 80% | pest or weed control at 3000 g/ha (Lolium mult.; 3.0 kg/ha POST): 100% | pest or weed control at 3000 g/ha (Mentha piper.): 100%

C[N+](C)(C)CCCl.[Cl-] [CCC, N,N,N-trimethyl-N-β-chloroethylammonium chloride, reference compound]
Plant height (spring barley [1]; 0.75 kg/ha): 29.5 cm | Plant height, % of untreated control (spring barley [1]; 0.75 kg/ha): 89.9% | Plant height (spring barley [1]; 1.50 kg/ha): 29.5 cm | Plant height, % of untreated control (spring barley [1]; 1.50 kg/ha): 89.9% | Plant height (spring barley [1]; 3.00 kg/ha): 27.5 cm | Plant height, % of untreated control (spring barley [1]; 3.00 kg/ha): 83.8% | Plant height (spring barley [1]; 6.00 kg/ha): 26.0 cm | Plant height, % of untreated control (spring barley [1]; 6.00 kg/ha): 79.3% | Plant height (spring rye [2]; 0.75 kg/ha): 31.5 cm | Plant height, % of untreated control (spring rye [2]; 0.75 kg/ha): 97.5% | Plant height (spring rye [2]; 1.50 kg/ha): 30.5 cm | Plant height, % of untreated control (spring rye [2]; 1.50 kg/ha): 94.4% | Plant height (spring rye [2]; 3.00 kg/ha): 30.0 cm | Plant height, % of untreated control (spring rye [2]; 3.00 kg/ha): 92.9% | Plant height (spring rye [2]; 6.00 kg/ha): 28.5 cm | Plant height, % of untreated control (spring rye [2]; 6.00 kg/ha): 88.2% | Plant height (spring rye [3]; 0.75 kg/ha): 27.0 cm | Plant height, % of untreated control (spring rye [3]; 0.75 kg/ha): 94.7% | Plant height (spring rye [3]; 1.50 kg/ha): 25.5 cm | Plant height, % of untreated control (spring rye [3]; 1.50 kg/ha): 89.5% | Plant height (spring rye [3]; 3.00 kg/ha): 25.5 cm | Plant height, % of untreated control (spring rye [3]; 3.00 kg/ha): 89.5% | Plant height (spring barley [4]; 0.75 kg/ha): 27.5 cm | Plant height, % of untreated control (spring barley [4]; 0.75 kg/ha): 98.4% | Plant height (spring barley [4]; 1.50 kg/ha): 27.0 cm | Plant height, % of untreated control (spring barley [4]; 1.50 kg/ha): 97.1% | Plant height (spring barley [4]; 3.00 kg/ha): 27.0 cm | Plant height, % of untreated control (spring barley [4]; 3.00 kg/ha): 97.1% | Plant height (spring wheat [5]; 3 kg/ha): 21.5 cm | Plant height, % of untreated control (spring wheat [5]; 3 kg/ha): 71.7% | Plant height (spring wheat [5]; 12 kg/ha): 19.5 cm | Plant height, % of untreated control (spring wheat [5]; 12 kg/ha): 65.0% | Plant height (spring barley [6]; 3 kg/ha): 27.5 cm | Plant height, % of untreated control (spring barley [6]; 3 kg/ha): 85.1% | Plant height (spring barley [6]; 12 kg/ha): 24.5 cm | Plant height, % of untreated control (spring barley [6]; 12 kg/ha): 75.9% | Plant height (spring wheat [7]; 0.75 kg/ha): 27.5 cm | Plant height, % of untreated control (spring wheat [7]; 0.75 kg/ha): 89.3% | Plant height (spring wheat [7]; 1.50 kg/ha): 26.0 cm | Plant height, % of untreated control (spring wheat [7]; 1.50 kg/ha): 84.4% | Plant height (spring wheat [7]; 3.00 kg/ha): 25.0 cm | Plant height, % of untreated control (spring wheat [7]; 3.00 kg/ha): 81.2%
